Tested on: TSPO
Experiment: Dynamic PET scan of a mouse bearing an intracranial U87MG-Luc2 tumour
Assay type: in vivo
Settings: single mouse, 120 min dynamic PET, early portion of the scan
Description: In order to investigate the potential of [^18F]-AB5186 6 as a PET tracer for TSPO a dynamic PET scan was performed using the Albira imaging system (Carestream Molecular Imaging, USA) in a single mouse bearing an intracranial U87MG-Luc2 tumour for 120 min after intravenous administration of the tracer. Postmortem histological examination of the brain collected at the end of the scan was conducted to visualise the anatomical location of the tumour. Following reconstruction, the entire dynamic PET image was manually co-registered to key anatomical structures of the CT (i.e. the spine, the front limbs and the eye sockets). […]
Fig. 6 Averaged PET images of a U87MG-Luc2 glioma bearing mouse brain following [^18F]-AB5186 injection: (a) 0–40 min averaged, (b) 41–80 min averaged, and (c) 81–120 min averaged; 120 min dynamic scan. […] (f) Tracer kinetics expressed as a ratio of the tumour to contralateral SUVs.
20 min the mice were sacrificed by CO2 asphyxiation, the brains were removed and frozen using a Cryospray (Cellpath). […] The film was developed following an overnight incubation at −20 ° C and scanned using a Bio-Rad GS-800 Calibrated Densitometer with the aid the Quantity One Basic (version 4.6.3) software. Quantification was performed using the ImageJ 1.47v software. […]

## CCN(CC)C(=O)c1nc2ccccc2c(-c2ccccc2)c1C[18F] [[^18F]-AB5186 6]
  amount of tracer in tumour versus contralateral region (time-activity curve): greater amounts
